Experimental data reported in US20030180341A1, “Biocompatible hydrophilic films from polymeric mini-emulsions for application to skin” (priority 2002, published 2003).

Key:
[1] = Anti-microbial effect of mini-emulsion/film compositions with sodium hypochlorite; details: provided in the mini-emulsion/film compositions, preferably between about 0.1 and about 0.5% by weight of solids
[2] = Antifungal properties of films containing caprylic fatty acid; details: dried film
[3] = Antibacterial properties of films and mini-emulsions containing caprylic fatty acid

| Structure (SMILES) | anti-microbial effect [1] | antifungal properties [2] | antibacterial effect ([3]; dried film) | antibacterial properties ([3]; liquid mini-emulsion) |
| --- | --- | --- | --- | --- |
| OCl [sodium hypochlorite] | effective as a broad spectrum anti-microbial | – | – | – |
| CCCCCCCC(=O)O [caprylic fatty acid] | – | broad spectrum antifungal properties | mild antibacterial effect | broad spectrum antibacterial properties |
